{"source": "ChEMBL document CHEMBL1135514", "about": "“Structure-based approach for binding site identification on AmpC beta-lactamase” (J Med Chem, 2002)", "molecular_target": "Beta-lactamase (Escherichia coli K-12, UniProt P00811)", "sequence (P00811 whole entry)": "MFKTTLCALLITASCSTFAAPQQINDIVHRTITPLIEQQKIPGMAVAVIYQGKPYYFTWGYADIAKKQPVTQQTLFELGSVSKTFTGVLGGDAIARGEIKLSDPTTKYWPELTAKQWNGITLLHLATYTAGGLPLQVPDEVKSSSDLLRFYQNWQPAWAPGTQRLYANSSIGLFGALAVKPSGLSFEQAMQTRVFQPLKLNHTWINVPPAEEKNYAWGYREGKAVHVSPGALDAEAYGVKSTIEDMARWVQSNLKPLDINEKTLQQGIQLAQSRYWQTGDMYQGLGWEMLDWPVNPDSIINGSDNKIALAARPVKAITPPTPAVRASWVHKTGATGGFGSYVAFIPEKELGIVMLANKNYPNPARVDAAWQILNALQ", "test": "Binding affinity towards AmpC beta-lactamase binding site from Escherichia coli"}
{"smiles": "CC(C)(O/N=C(/C(=O)NCB(O)O)c1csc(N)n1)C(=O)O", "values": [{"measurement": "Ki", "result": 20, "unit": "nM"}]}
